Patent US20130274237A1, “COMPOSITION INCLUDING CHLOROPHYLL A AS AN ACTIVE INGREDIENT FOR PREVENTING AND TREATING TH2-MEDIATED IMMUNOLOGICAL DISEASES” (GWANGJU INSTITUTE OF SCIENCE AND TECHNOLOGY, priority 2009, published 2013)
Where “and” joins values, the source holds several entries; their conditions need not be identical. Equal values may be shown once.

Legend:
[1] = test system: atopic dermatitis induced with DNCB in NC/Nga mice; assay: Sensory evaluation (clinical visual skin score) in DNCB-induced atopic dermatitis; type: in vivo; design: key: total of five item scores, 0 = lowest, 15 = highest; details: scale 0-15; for Sensory Evaluation Score, group mean: mean of 5 mice; for Sensory Evaluation Score mean: mean of A and B; for Sensory Evaluation Score mean / Sensory Evaluation Score A / Sensory Evaluation Score B: individual mouse; for Sensory Evaluation Score A: scorer A; for Sensory Evaluation Score B: scorer B
Procedure: Sensory evaluation was performed using the general clinical visual method. The result of visual evaluation was indicated in terms of the total score obtained by adding each of the evaluation scores for the five items shown in the below table. The scoring for the level of dermatitis was performed by two or more persons experienced in this experiment under mutual agreement. The score was set from “0” point, the lowest, to “15” point, the highest (Table 2).

IgE (Immunoglobulin E) = assay: IgE concentration in blood serum (ELISA); type: in vivo, NC/Nga mice; details: for IgE Average Concentration / IgE Group Average: blood serum; for IgE Average Concentration: individual specimen; for IgE Group Average: mean of 5 mice
Procedure: The blood collected in a mouse was left at room temperature for 30 minutes and then centrifuged at 3000 rpm for 20 minutes. The blood serum obtained therefrom was analyzed via ELISA kit (Shibayagi, Japan).

spleen = assay: Measurement of spleen weight; type: in vivo, NC/Nga mice; details: for relative organ weight of spleen: group mean; for Absolute Comparison of Organs spleen wt. / Relative Comparison of Organs spleen: individual mouse; for Absolute Comparison of Organs spleen wt. mean S.D. / Relative Comparison of Organs spleen mean S.D.: mean of 5 mice
Procedure: The spleen of a sacrificed animal was ablated, removed of fat, and then measured of its weight. When the absolute organ weight of the spleen was compared with that of the positive control group (0.2576±0.043 g), the weight was lower in the order of test drug chlorophyll a 1 mg/kg group (0.1188±0.023 g), chlorophyll a 5 mg/kg group (0.1276±0.011 g), and 5 mg/kg drug control group (0.1376±0.025 g), and all of them were of significance at p<0.05, but were lower than that of the negative control group (0.1734±0.021 g) (FIG. 6).

[2] = test system: skin tissues of atopy-induced NC/Nga mice; assay: Histology: H & E biopsy score of skin; type: in vivo; details: for H & E biopsy score: group mean, acanthosis, hyperkeratosis, neutrophil infiltration, fibroblast hyperplasia, dermis each scored 1 to 3
Procedure: (§1) 4-7) Histology (H & E, Toluidine Blue Stain) • d. Skin tissues were fixed in 10% formalin for at least 24 hours, prepared into paraffin blocks, cut into pieces in the size of 4 μm, dyed with hematoxylin & eosin (Sigma, USA), and then dyed again with toluidine blue (Sigma, USA) for more accurate identification of inflammatory cells.
The evaluation standard for biopsy was calculated in an averaged score scale of 1 to 3 based on the status of acanthosis, hyperkeratosis, neutrophil infiltration, fibroblast hyperplasia, dermis, etc. […] Among them, a group treated with 1 mg/kg of chlorophyll a as a test drug was evaluated as being of significance (FIGS. 18-23).

[3] = test system: degranulation of mast cells; assay: Histology: mast cells per degranulation level; type: in vivo, NC/Nga mice; details: for No. of Mast Cells per value of degranulation level 1 / No. of Mast Cells per value of degranulation level 1, mean: intermediate level of degranulation; for No. of Mast Cells per value of degranulation level 1 / No. of Mast Cells per value of degranulation level 0 / No. of Mast Cells per value of degranulation level 2: individual mouse; for No. of Mast Cells per value of degranulation level 1, mean / No. of Mast Cells per value of degranulation level 0, mean / No. of Mast Cells per value of degranulation level 2, mean: mean of 5 mice; for No. of Mast Cells per value of degranulation level 0 / No. of Mast Cells per value of degranulation level 0, mean: normal degranulation; for No. of Mast Cells per value of degranulation level 2 / No. of Mast Cells per value of degranulation level 2, mean: serious level of degranulation
Procedure: as §1

[4] = test system: dorsal skin of NC/Nga mice induced with atopic dermatitis using DNCB; assay: Dorsal skin inflammation of mice induced with atopic dermatitis (clinical images); type: in vivo; details: 15th week, versus positive control, in words
Excerpt: 4-6) Dorsal Skin Inflammation of a Mouse Induced with Atopic Dermatitis • c. The body weight of a mouse was not increased due to DNCB solution used for inducing atopy, however, there was no decrease in body weight by the administration of chlorophyll a. In the positive control group coated with only distilled water after atopy induction using DNCB, there were observed a thick cornified layer and inflammation and damage on skin.

mast cells = assay: Histology: number of mast cells in skin (toluidine blue, x200); type: in vivo, NC/Nga mice; details: for Average No. of Mast Cells × 200: individual mouse; for Average No. of Mast Cells × 200, Group Mean: mean of 5 mice
Procedure: as §1

[5] = Body weight of atopy-induced NC/Nga mice; details: DNCB atopy-induced NC/Nga mice
Excerpt: 20 fourteen-week old female NC/Nga mice (Central Lab. Animal Inc., Korea) with a body weight of about 20 g were used. The experimental animals were allowed to adapt for 7 days in the animal rooms before the experiment, and observed for general symptoms.
A test solution prepared by dissolving a mixture consisting of acetone and olive oil in 3:1 ratio in dinitrochlorobenzene (DNCB) to a concentration of about 1% to about 0.2% was coated on the skin of the NC/Nga mice to induce atopic dermatitis.
Body weight was measured twice from the time when the test material was administered.

C=Cc1c(C)c2cc3nc(c4c5[n-]c(cc6nc(cc1[n-]2)C(C)=C6CC)c(C)c5C(=O)[C@@H]4C(=O)OC)[C@@H](CCC(=O)OC/C=C(\C)CCC[C@H](C)CCC[C@H](C)CCCC(C)C)[C@@H]3C.[Mg+2] [chlorophyll a]
Sensory Evaluation Score, group mean ([1]; 1 mg/kg oral daily): 2.7±0.758 and 2.7
Sensory Evaluation Score mean ([1]; 1 mg/kg oral daily): 1.5 and 3 (2×) and 3.5 and 2.5
Sensory Evaluation Score A ([1]; 1 mg/kg oral daily): 2 (2×) and 3 (3×)
Sensory Evaluation Score B ([1]; 1 mg/kg oral daily): 1 and 4 (2×) and 2 and 3
Sensory Evaluation Score, group mean ([1]; 5 mg/kg oral daily): 2.7±1.789 and 2.7
Sensory Evaluation Score mean ([1]; 5 mg/kg oral daily): 5.5 and 1.5 (3×) and 3.5
Sensory Evaluation Score A ([1]; 5 mg/kg oral daily): 5 and 2 (3×) and 3
Sensory Evaluation Score B ([1]; 5 mg/kg oral daily): 6 and 1 (3×) and 4
IgE Average Concentration (IgE (Immunoglobulin E); 1 mg/kg oral daily, 1 mg/kg): 104.198 ng/mL and 106.557 ng/mL and 166.675 ng/mL and 119.515 ng/mL and 149.499 ng/mL
IgE Group Average (IgE (Immunoglobulin E); 1 mg/kg oral daily, 1 mg/kg): 121.76 ± 15.58 ng/mL and 129.29 ± 27.60 ng/mL
IgE Average Concentration (IgE (Immunoglobulin E); 5 mg/kg oral daily, 5 mg/kg): 108.757 ng/mL and 115.652 ng/mL and 129.408 ng/mL and 88.578 ng/mL and 104.912 ng/mL
IgE Group Average (IgE (Immunoglobulin E); 5 mg/kg oral daily, 5 mg/kg): 109.46 ± 14.95 ng/mL
value of IgE (IgE (Immunoglobulin E); in words, dose not split): decreased
relative organ weight of spleen (spleen; 1 mg/kg oral daily): 0.418 ± 0.211 g
Absolute Comparison of Organs spleen wt. (spleen; 1 mg/kg oral daily): 0.103 g and 0.114 g and 0.119 g and 0.1 g and 0.158 g
Relative Comparison of Organs spleen (spleen; 1 mg/kg oral daily): 0.355 g/body wt. (100 g) and 0.394 g/body wt. (100 g) and 0.433 g/body wt. (100 g) and 0.370 g/body wt. (100 g) and 0.537 g/body wt. (100 g)
Absolute Comparison of Organs spleen wt. mean S.D. (spleen; 1 mg/kg oral daily): 0.1188 ± 0.023 g
Relative Comparison of Organs spleen mean S.D. (spleen; 1 mg/kg oral daily): 0.418 ± 0.073 g/body wt. (100 g)
relative organ weight of spleen (spleen; 5 mg/kg oral daily): 0.446 ± 0.069 g
Absolute Comparison of Organs spleen wt. (spleen; 5 mg/kg oral daily): 0.144 g and 0.12 g and 0.133 g and 0.122 g and 0.119 g
Relative Comparison of Organs spleen (spleen; 5 mg/kg oral daily): 0.560 g/body wt. (100 g) and 0.383 g/body wt. (100 g) and 0.455 g/body wt. (100 g) and 0.414 g/body wt. (100 g) and 0.416 g/body wt. (100 g)
Absolute Comparison of Organs spleen wt. mean S.D. (spleen; 5 mg/kg oral daily): 0.1276 ± 0.011 g
Relative Comparison of Organs spleen mean S.D. (spleen; 5 mg/kg oral daily): 0.446 ± 0.069 g/body wt. (100 g)
absolute organ weight and relative organ weight of spleen compared with the negative control group (spleen; in words, dose not split): only a little difference
H & E biopsy score ([2]; 1 mg/kg oral daily): 4.6±0.55
tissue H&E reading: improvement in atopy symptom ([2]; 1 mg/kg oral daily, in words): the most improvement
H & E biopsy score ([2]; 5 mg/kg oral daily): 5±1.58
degranulation count of the mast cells ([3]; 1 mg/kg oral daily, in words): not significantly improved
No. of Mast Cells per value of degranulation level 1 ([3]; 1 mg/kg oral daily, 1 mg/kg): 2.87 and 1.44 and 1.91 and 1.75 and 2.57
No. of Mast Cells per value of degranulation level 1, mean ([3]; 1 mg/kg oral daily, 1 mg/kg): 2.11±0.59 and 2.11
No. of Mast Cells per value of degranulation level 1 ([3]; 5 mg/kg oral daily, 5 mg/kg): 0.75 and 2.31 and 2.76 and 2.57 and 4.31
No. of Mast Cells per value of degranulation level 1, mean ([3]; 5 mg/kg oral daily, 5 mg/kg): 2.54±1.27 and 2.54
No. of Mast Cells per value of degranulation level 0 ([3]; 1 mg/kg oral daily, 1 mg/kg): 4.12 and 5.55 and 2.82 and 5.89 and 4.83
No. of Mast Cells per value of degranulation level 0, mean ([3]; 1 mg/kg oral daily, 1 mg/kg): 4.64±1.22 and 4.64
No. of Mast Cells per value of degranulation level 0 ([3]; 5 mg/kg oral daily, 5 mg/kg): 5.98 and 6.31 and 4.51 and 7.41 and 3.81
No. of Mast Cells per value of degranulation level 0, mean ([3]; 5 mg/kg oral daily): 5.60
No. of Mast Cells per value of degranulation level 0, mean ([3]; 5 mg/kg oral daily, 5 mg/kg): 5.60±1.44
No. of Mast Cells per value of degranulation level 2 ([3]; 1 mg/kg oral daily, 1 mg/kg): 1.56 and 0.62 and 0.66 and 1.25 and 2.38
No. of Mast Cells per value of degranulation level 2, mean ([3]; 1 mg/kg oral daily, 1 mg/kg): 1.30±0.73 and 1.30
No. of Mast Cells per value of degranulation level 2 ([3]; 5 mg/kg oral daily, 5 mg/kg): 0.44 and 1.44 and 5.45 and 1.82 and 3.00
No. of Mast Cells per value of degranulation level 2, mean ([3]; 5 mg/kg oral daily, 5 mg/kg): 2.43±1.92 and 2.43
tissue damage of dorsal skin ([4]; 1 mg/kg oral daily): significant decreases
tissue damage of dorsal skin ([4]; 5 mg/kg oral daily): significant decreases
Average No. of Mast Cells × 200 (mast cells; 1 mg/kg oral daily): 9.3 and 7.6 and 5.4 and 8.9 and 10.4
Average No. of Mast Cells × 200, Group Mean (mast cells; 1 mg/kg oral daily): 8.32±1.195 and 8.32 ± 1.915 and 8.32
Average No. of Mast Cells × 200 (mast cells; 5 mg/kg oral daily): 7.3 and 10 and 12.7 and 11.8 and 11.1
Average No. of Mast Cells × 200, Group Mean (mast cells; 5 mg/kg oral daily): 10.8±2.083 and 10.58 ± 2.083 and 10.58
body weight ([5]; 1 mg/kg oral daily, day 1, individual mouse, 1 mg/kg): 25.6 g and 27.4 g and 24.5 g and 24 g and 26.1 g
body weight, group mean ([5]; 1 mg/kg oral daily, day 1, mean of 5 mice): 25.52 g
body weight ([5]; 1 mg/kg oral daily, day 3, individual mouse, 1 mg/kg): 25.7 g and 27.6 g and 25.8 g and 25.5 g and 27.1 g
body weight, group mean ([5]; 1 mg/kg oral daily, day 3, mean of 5 mice): 26.34 g
body weight ([5]; 1 mg/kg oral daily, day 5, individual mouse, 1 mg/kg): 27.3 g and 28.2 g and 26.5 g and 26 g and 27.8 g
body weight, group mean ([5]; 1 mg/kg oral daily, day 5, mean of 5 mice): 27.16 g
body weight ([5]; 1 mg/kg oral daily, day 7, individual mouse, 1 mg/kg): 27.3 g and 27.6 g and 26.5 g and 24.7 g and 28.6 g
body weight, group mean ([5]; 1 mg/kg oral daily, day 7, mean of 5 mice): 26.94 g
body weight ([5]; 1 mg/kg oral daily, day 9, individual mouse, 1 mg/kg): 28.4 g and 27.4 g and 25.8 g and 25.7 g and 27.7 g
body weight, group mean ([5]; 1 mg/kg oral daily, day 9, mean of 5 mice): 27 g
body weight, group mean ([5]; 1 mg/kg oral daily, day 11 (time of sacrifice), mean of 5 mice, 1 mg/kg): 28.36 ± 1.045 g and 28.36 g
body weight ([5]; 1 mg/kg oral daily, day 11, individual mouse, 1 mg/kg): 29 g and 28.9 g and 27.5 g and 27 g and 29.4 g
body weight ([5]; 5 mg/kg oral daily, day 1, individual mouse, 5 mg/kg): 24.9 g and 28.6 g and 27.5 g (2×) and 27.1 g
body weight, group mean ([5]; 5 mg/kg oral daily, day 1, mean of 5 mice): 27.12 g
body weight ([5]; 5 mg/kg oral daily, day 3, individual mouse, 5 mg/kg): 24.8 g and 29.6 g and 27.1 g and 29 g and 27.4 g
body weight, group mean ([5]; 5 mg/kg oral daily, day 3, mean of 5 mice): 27.58 g
body weight ([5]; 5 mg/kg oral daily, day 5, individual mouse, 5 mg/kg): 25.9 g and 30.8 g and 26.7 g and 29.3 g and 28 g
body weight, group mean ([5]; 5 mg/kg oral daily, day 5, mean of 5 mice): 28.14 g
body weight ([5]; 5 mg/kg oral daily, day 7, individual mouse, 5 mg/kg): 25.9 g and 30.6 g and 27.2 g and 30.2 g and 28.2 g
body weight, group mean ([5]; 5 mg/kg oral daily, day 7, mean of 5 mice): 28.42 g
body weight ([5]; 5 mg/kg oral daily, day 9, individual mouse, 5 mg/kg): 25.3 g and 30.6 g and 27.2 g and 29 g and 27 g
body weight, group mean ([5]; 5 mg/kg oral daily, day 9, mean of 5 mice): 27.82 g
body weight, group mean ([5]; 5 mg/kg oral daily, day 11 (time of sacrifice), mean of 5 mice, 5 mg/kg): 28.86 ± 2.033 g and 28.86 g
body weight ([5]; 5 mg/kg oral daily, day 11, individual mouse, 5 mg/kg): 25.7 g and 31.3 g and 29.2 g and 29.5 g and 28.6 g
change in body weight by the administration ([5]; oral administration, in words): no decrease
